Source: patent publication EP0349354A1, “Peptides PF10 to PF19 from a retro virus HIV, method for the synthesis of these peptides and their use, particularly in diagnostics” (INSTITUT PASTEUR, priority 1988, dated 1990)

Tests used:
anticorps anti-nef = test: ELISA for detection of anti-nef antibodies on coated peptides or nef; assay type: binding, humain; settings: for intensité de l'immunoréactivité (OD), Serum 1: Serum 1, anti-nef positive; for intensité de l'immunoréactivité (OD), Serum 1 / intensité de l'immunoréactivité (OD), Serum 2 / intensité de l'immunoréactivité (OD), Serum 3 / intensité de l'immunoréactivité (OD), Serum 4 / intensité de l'immunoréactivité (OD), Serum 5 / intensité de l'immunoréactivité (OD), Serum 6 / intensité de l'immunoréactivité (OD), Serum 7 / intensité de l'immunoréactivité (OD), Serum 8 / intensité de l'immunoréactivité (OD), Serum 9 / intensité de l'immunoréactivité (OD), Serum 10 / intensité de l'immunoréactivité (OD), Serum 11 / intensité de l'immunoréactivité (OD), Serum 12 / intensité de l'immunoréactivité (OD), Serum 13 / intensité de l'immunoréactivité (OD), Serum 14 / intensité de l'immunoréactivité (OD), Serum 15 / intensité de l'immunoréactivité (OD), Serum 16 / intensité de l'immunoréactivité (OD), Serum 17 / intensité de l'immunoréactivité (OD), Serum 18 / intensité de l'immunoréactivité (OD), Serum 19 / intensité de l'immunoréactivité (OD), Serum 20 / intensité de l'immunoréactivité (OD), Serum 21 / intensité de l'immunoréactivité (OD), Serum 22 / intensité de l'immunoréactivité (OD), Serum 23 / intensité de l'immunoréactivité (OD), Serum 24 / intensité de l'immunoréactivité (OD), Serum 25 / intensité de l'immunoréactivité (OD), Serum 26 / intensité de l'immunoréactivité (OD), Serum 27 / intensité de l'immunoréactivité (OD), Serum 28 / intensité de l'immunoréactivité (OD), Serum 29 / intensité de l'immunoréactivité (OD), Serum 30 / intensité de l'immunoréactivité (OD), Serum 31 / intensité de l'immunoréactivité (OD), Serum 32 / intensité de l'immunoréactivité (OD), Serum 33: 500 ng coated per well; for intensité de l'immunoréactivité (OD), Serum 2: Serum 2, anti-nef positive; for intensité de l'immunoréactivité (OD), Serum 3: Serum 3, anti-nef positive; for intensité de l'immunoréactivité (OD), Serum 4: Serum 4, anti-nef positive; for intensité de l'immunoréactivité (OD), Serum 5: Serum 5, anti-nef positive; for intensité de l'immunoréactivité (OD), Serum 6: Serum 6, anti-nef positive; for intensité de l'immunoréactivité (OD), Serum 7: Serum 7, anti-nef positive; for intensité de l'immunoréactivité (OD), Serum 8: Serum 8, anti-nef positive; for intensité de l'immunoréactivité (OD), Serum 9: Serum 9, anti-nef positive; for intensité de l'immunoréactivité (OD), Serum 10: Serum 10, anti-nef positive; for intensité de l'immunoréactivité (OD), Serum 11: Serum 11, anti-nef positive; for intensité de l'immunoréactivité (OD), Serum 12: Serum 12, anti-nef positive; for intensité de l'immunoréactivité (OD), Serum 13: Serum 13, anti-nef positive; for intensité de l'immunoréactivité (OD), Serum 14: Serum 14, anti-nef positive; for intensité de l'immunoréactivité (OD), Serum 15: Serum 15, anti-nef positive; for intensité de l'immunoréactivité (OD), Serum 16: Serum 16, anti-nef positive; for intensité de l'immunoréactivité (OD), Serum 17: Serum 17, anti-nef positive; for intensité de l'immunoréactivité (OD), Serum 18: Serum 18, anti-nef positive; for intensité de l'immunoréactivité (OD), Serum 19: Serum 19, anti-nef positive; for intensité de l'immunoréactivité (OD), Serum 20: Serum 20, anti-nef positive; for intensité de l'immunoréactivité (OD), Serum 21: Serum 21, anti-nef positive; for intensité de l'immunoréactivité (OD), Serum 22: Serum 22, anti-nef positive; for intensité de l'immunoréactivité (OD), Serum 23: Serum 23, anti-nef positive; for intensité de l'immunoréactivité (OD), Serum 24: Serum 24, anti-nef positive; for intensité de l'immunoréactivité (OD), Serum 25: Serum 25, anti-nef positive; for intensité de l'immunoréactivité (OD), Serum 26: Serum 26, anti-nef positive; for intensité de l'immunoréactivité (OD), Serum 27: Serum 27, anti-nef positive; for intensité de l'immunoréactivité (OD), Serum 28: Serum 28, anti-nef positive; for intensité de l'immunoréactivité (OD), Serum 29: Serum 29, anti-nef positive; for intensité de l'immunoréactivité (OD), Serum 30: Serum 30, anti-nef positive; for intensité de l'immunoréactivité (OD), Serum 31: Serum 31, anti-nef positive; for intensité de l'immunoréactivité (OD), Serum 32: Serum 32, anti-nef negative control serum; for intensité de l'immunoréactivité (OD), Serum 33: Serum 33, anti-nef negative control serum
[1] = system: anticorps anti-protéine F; test: Western blot test on peptide spots with sera of HIV-1 infected patients; assay type: binding, humain; settings: for réaction avec sérum 1545 1/200, 10µl: serum 1545 diluted 1/200, spot 10µl of peptide at 2 mg/ml
Procedure: Pour les besoins du test, les différents peptides PF16, PF19, PF13, PF17 utilisés sont dilués à une concentration de 2 mg/ml.
Sur une bande de papier BIORAD pour transblot, on dépose différents spots : 1µl, 2µl, 5µl, 10µl.
Après séchage on pratique un test Western Blot classique en utilisant comme anticorps des sérums de patients infectés par le virus HIV-1, positifs pour la protéine F, à des dilutions variant de 1/100 à 1/300.
Les peptides testés permettent d'aboutir aux résultats résumés dans le tableau 2 avec trois sérums différents anti-F ++ (++ signifiant une réaction plus marquée).

| Sequence | intensité de l'immunoréactivité (OD), Serum 1 (anticorps anti-nef) | intensité de l'immunoréactivité (OD), Serum 2 (anticorps anti-nef) | intensité de l'immunoréactivité (OD), Serum 3 (anticorps anti-nef) | intensité de l'immunoréactivité (OD), Serum 4 (anticorps anti-nef) | intensité de l'immunoréactivité (OD), Serum 5 (anticorps anti-nef) | intensité de l'immunoréactivité (OD), Serum 6 (anticorps anti-nef) | intensité de l'immunoréactivité (OD), Serum 7 (anticorps anti-nef) | intensité de l'immunoréactivité (OD), Serum 8 (anticorps anti-nef) | intensité de l'immunoréactivité (OD), Serum 9 (anticorps anti-nef) | intensité de l'immunoréactivité (OD), Serum 10 (anticorps anti-nef) | intensité de l'immunoréactivité (OD), Serum 11 (anticorps anti-nef) | intensité de l'immunoréactivité (OD), Serum 12 (anticorps anti-nef) | intensité de l'immunoréactivité (OD), Serum 13 (anticorps anti-nef) | intensité de l'immunoréactivité (OD), Serum 14 (anticorps anti-nef) | intensité de l'immunoréactivité (OD), Serum 15 (anticorps anti-nef) | intensité de l'immunoréactivité (OD), Serum 16 (anticorps anti-nef) | intensité de l'immunoréactivité (OD), Serum 17 (anticorps anti-nef) | intensité de l'immunoréactivité (OD), Serum 18 (anticorps anti-nef) | intensité de l'immunoréactivité (OD), Serum 19 (anticorps anti-nef) | intensité de l'immunoréactivité (OD), Serum 20 (anticorps anti-nef) | further results |
| --- | --- | --- | --- | --- | --- | --- | --- | --- | --- | --- | --- | --- | --- | --- | --- | --- | --- | --- | --- | --- | --- |
| XASRDLEKHGAITSSNTAATNAACAWLEAQEEEEZ [PF13] | + (pour OD = 0,2 à 0,4) | - (pour une densité optique (OD) inférieure à 0,2) | +++ (pour OD = 0,8 à 2,0) | + (pour OD = 0,2 à 0,4) | - (pour une densité optique (OD) inférieure à 0,2) | - (pour une densité optique (OD) inférieure à 0,2) | ++ (pour OD = 0,4 à 0,8) | ++ (pour OD = 0,4 à 0,8) | ++ (pour OD = 0,4 à 0,8) | - (pour une densité optique (OD) inférieure à 0,2) | - (pour une densité optique (OD) inférieure à 0,2) | - (pour une densité optique (OD) inférieure à 0,2) | - (pour une densité optique (OD) inférieure à 0,2) | ++ (pour OD = 0,4 à 0,8) | - (pour une densité optique (OD) inférieure à 0,2) | - (pour une densité optique (OD) inférieure à 0,2) | - (pour une densité optique (OD) inférieure à 0,2) | - (pour une densité optique (OD) inférieure à 0,2) | - (pour une densité optique (OD) inférieure à 0,2) | - (pour une densité optique (OD) inférieure à 0,2) | intensité de l'immunoréactivité (OD), Serum 21 (anticorps anti-nef): - (pour une densité optique (OD) inférieure à 0,2); intensité de l'immunoréactivité (OD), Serum 22 (anticorps anti-nef): - (pour une densité optique (OD) inférieure à 0,2); intensité de l'immunoréactivité (OD), Serum 23 (anticorps anti-nef): - (pour une densité optique (OD) inférieure à 0,2); intensité de l'immunoréactivité (OD), Serum 24 (anticorps anti-nef): - (pour une densité optique (OD) inférieure à 0,2); intensité de l'immunoréactivité (OD), Serum 25 (anticorps anti-nef): - (pour une densité optique (OD) inférieure à 0,2); intensité de l'immunoréactivité (OD), Serum 26 (anticorps anti-nef): - (pour une densité optique (OD) inférieure à 0,2); intensité de l'immunoréactivité (OD), Serum 27 (anticorps anti-nef): - (pour une densité optique (OD) inférieure à 0,2); intensité de l'immunoréactivité (OD), Serum 28 (anticorps anti-nef): - (pour une densité optique (OD) inférieure à 0,2); intensité de l'immunoréactivité (OD), Serum 29 (anticorps anti-nef): ++ (pour OD = 0,4 à 0,8); intensité de l'immunoréactivité (OD), Serum 30 (anticorps anti-nef): - (pour une densité optique (OD) inférieure à 0,2); intensité de l'immunoréactivité (OD), Serum 31 (anticorps anti-nef): - (pour une densité optique (OD) inférieure à 0,2); intensité de l'immunoréactivité (OD), Serum 32 (anticorps anti-nef): - (pour une densité optique (OD) inférieure à 0,2); intensité de l'immunoréactivité (OD), Serum 33 (anticorps anti-nef): - (pour une densité optique (OD) inférieure à 0,2); réaction avec sérum 1545 1/200, 10µl [1]: tr; réaction avec sérum CHA 1/300, 1µl ([1]; serum CHA diluted 1/300, spot 1µl of peptide at 2 mg/ml): tr; réaction avec sérum CHA 1/300, 2µl ([1]; serum CHA diluted 1/300, spot 2µl of peptide at 2 mg/ml): tr |
| XCYKLVPVEPDKVEEANKGENTSLLHPVSLHGMDDPEREVLEWRFDSRL AFHHVARELHPEYFKNCZ [PF17, protéine F HIV-1, séquence 141-205] | +++ (pour OD = 0,8 à 2,0) | +++ (pour OD = 0,8 à 2,0) | + (pour OD = 0,2 à 0,4) | +++ (pour OD = 0,8 à 2,0) | +++ (pour OD = 0,8 à 2,0) | +++ (pour OD = 0,8 à 2,0) | - (pour une densité optique (OD) inférieure à 0,2) | - (pour une densité optique (OD) inférieure à 0,2) | - (pour une densité optique (OD) inférieure à 0,2) | ++ (pour OD = 0,4 à 0,8) | + (pour OD = 0,2 à 0,4) | - (pour une densité optique (OD) inférieure à 0,2) | ++ (pour OD = 0,4 à 0,8) | - (pour une densité optique (OD) inférieure à 0,2) | +++ (pour OD = 0,8 à 2,0) | ++ (pour OD = 0,4 à 0,8) | ++ (pour OD = 0,4 à 0,8) | +++ (pour OD = 0,8 à 2,0) | +++ (pour OD = 0,8 à 2,0) | ++ (pour OD = 0,4 à 0,8) | nombre de sérums anti-nef positifs ayant réagi (anticorps anti-nef; ELISA, out of 31 anti-nef positive sera): 26; intensité de l'immunoréactivité (OD), Serum 21 (anticorps anti-nef): +++ (pour OD = 0,8 à 2,0); intensité de l'immunoréactivité (OD), Serum 22 (anticorps anti-nef): +++ (pour OD = 0,8 à 2,0); intensité de l'immunoréactivité (OD), Serum 23 (anticorps anti-nef): ++ (pour OD = 0,4 à 0,8); intensité de l'immunoréactivité (OD), Serum 24 (anticorps anti-nef): +++ (pour OD = 0,8 à 2,0); intensité de l'immunoréactivité (OD), Serum 25 (anticorps anti-nef): +++ (pour OD = 0,8 à 2,0); intensité de l'immunoréactivité (OD), Serum 26 (anticorps anti-nef): ++ (pour OD = 0,4 à 0,8); intensité de l'immunoréactivité (OD), Serum 27 (anticorps anti-nef): + (pour OD = 0,2 à 0,4); intensité de l'immunoréactivité (OD), Serum 28 (anticorps anti-nef): ++ (pour OD = 0,4 à 0,8); intensité de l'immunoréactivité (OD), Serum 29 (anticorps anti-nef): ++ (pour OD = 0,4 à 0,8); intensité de l'immunoréactivité (OD), Serum 30 (anticorps anti-nef): +++ (pour OD = 0,8 à 2,0); intensité de l'immunoréactivité (OD), Serum 31 (anticorps anti-nef): ++ (pour OD = 0,4 à 0,8); intensité de l'immunoréactivité (OD), Serum 32 (anticorps anti-nef): - (pour une densité optique (OD) inférieure à 0,2); intensité de l'immunoréactivité (OD), Serum 33 (anticorps anti-nef): - (pour une densité optique (OD) inférieure à 0,2); réaction avec sérum 1545 1/200, 10µl [1]: tr |
